Key:
Format in all cases: physicochemical
[1] = Residual rate of the active substance in monomer solution (HPLC); conditions: for Residual Rate (% by weight) after 7 Days: 25° C.
[2] = Solvency of the active substance in monomers (visual inspection); parameters: key: Excellent: The active substance was not found to have been precipitated in the solution of active substance both immediately after the preparation and after the preservation for 7 days.; Good: The active substance was found to have been precipitated in the solution of active substance immediately after the preparation, but the active substance was not found to have been precipitated in the solution of active substance after the preservation for 7 days.; Poor: The active substance was found to have been precipitated in the solution of active substance both immediately after the preparation and after the preservation for 7 days; conditions: 25° C., 7 days
[3] = Solvency of DMAE in alcohol/additive; conditions: 25° C.
Method: When a crystal of DMAE was precipitated […], and when a crystal of DMAE was not precipitated, the solvency was evaluated to be “poor”.

[4] = Solubility of DMAE at 25° C. in alcohol/additive
Text: When the content of the saturated aliphatic monohydric alcohol is small in the plaster layer described above, the solvency and diffusibility of the DMAEs in the plaster layer decrease, and the transdermal absorbency of the DMAEs becomes insufficient. When the content of the saturated aliphatic monohydric alcohol is large in the plaster layer, the acrylic adhesive in the plaster layer becomes excessively plasticized, leading to an adhesive transfer when the transdermal patch is removed away from the skin. Therefore, the content of the saturated aliphatic monohydric alcohol in the plaster layer is limited to 1 to 30% by weight, and preferably 5 to 30%.
An excess amount of DMAEs is added to the saturated aliphatic monohydric alcohol, a weight W0 (g) of the alcohol being measured in advance; a solution temperature is set at 50° C. to keep the warmth for one hour or more than one hour; and then a shaking operation is continued in a water bath of 25° C. for 10 minutes by means of supersonic waves to prepare a DMAEs saturated solution. Next, the DMAEs saturated solution, after being arranged to stand still for 24 hours at 25° C., is centrifuged at a speed of 3000 r.p.m., and a certain amount of clear supernatant solution of the DMAEs saturated solution is collected. Then, such collected clear supernatant solution is subjected to HPLC determination to determine a weight W1 (g) of the DMAEs dissolved in the DMAEs saturated solution, and solubility of the DMAEs with respect to the saturated aliphatic monohydric alcohol is figured out by using the following equation (1).
Solubility of DMAEs (g)=(W1/W0)×100 Equation (1)

[5] = in Butyl Acrylate, N.D. = equal to or less than the HPLC detection limit
[6] = in Ethyl Acrylate, N.D. = equal to or less than the HPLC detection limit
[7] = 3 parts active substance in 100 parts 1-Vinyl-2-Pyrrolidone
[8] = 3 parts active substance in 100 parts 2-Ethylhexyl Acrylate
[9] = 3 parts active substance in 100 parts 2-Ethylhexyl Methacrylate
[10] = 3 parts active substance in 100 parts Acrylic Acid
[11] = 3 parts active substance in 100 parts Butyl Acrylate
[12] = 3 parts active substance in 100 parts Butyl Methacrylate
[13] = 3 parts active substance in 100 parts Dodecyl Methacrylate
[14] = 3 parts active substance in 100 parts Ethyl Acrylate

CC(C)(C)NCC(O)c1ccccc1Cl (stereo not shown) [TB, tulobuterol]
Good: Solvency of the active substance [2, 13]
Excellent: Solvency of the active substance [2, 7] | Solvency of the active substance [2, 8] | Solvency of the active substance [2, 9] | Solvency of the active substance [2, 10] | Solvency of the active substance [2, 11] | Solvency of the active substance [2, 12] | Solvency of the active substance [2, 14]
100 % by weight: Residual Rate (% by weight) Immediately after Preparation ([1]; in 1-Vinyl-2-Pyrrolidone) | Residual Rate (% by weight) after 7 Days ([1]; in 1-Vinyl-2-Pyrrolidone) | Residual Rate (% by weight) Immediately after Preparation ([1]; in 2-Ethylhexyl Acrylate) | Residual Rate (% by weight) Immediately after Preparation ([1]; in 2-Ethylhexyl Methacrylate) | Residual Rate (% by weight) after 7 Days ([1]; in 2-Ethylhexyl Methacrylate) | Residual Rate (% by weight) Immediately after Preparation ([1]; in Acrylic Acid) | Residual Rate (% by weight) Immediately after Preparation ([1]; in Butyl Acrylate) | Residual Rate (% by weight) Immediately after Preparation ([1]; in Butyl Methacrylate) | Residual Rate (% by weight) after 7 Days ([1]; in Butyl Methacrylate) | Residual Rate (% by weight) Immediately after Preparation ([1]; in Dodecyl Methacrylate) | Residual Rate (% by weight) after 7 Days ([1]; in Dodecyl Methacrylate) | Residual Rate (% by weight) Immediately after Preparation [1, 6]
70 % by weight: Residual Rate (% by weight) after 7 Days ([1]; in Ethyl Acrylate)
88 % by weight: Residual Rate (% by weight) after 7 Days ([1]; in 2-Ethylhexyl Acrylate)
96 % by weight: Residual Rate (% by weight) after 7 Days ([1]; in Acrylic Acid)
81 % by weight: Residual Rate (% by weight) after 7 Days [1, 5]

COc1ccc2c(c1)c(CC(=O)O)c(C)n2C(=O)c1ccc(Cl)cc1 [IMT, indomethacin]
Poor: Solvency of the active substance [2, 8] | Solvency of the active substance [2, 9] | Solvency of the active substance [2, 11] | Solvency of the active substance [2, 12] | Solvency of the active substance [2, 13] | Solvency of the active substance [2, 14]
99 % by weight: Residual Rate (% by weight) after 7 Days ([1]; in Butyl Methacrylate) | Residual Rate (% by weight) after 7 Days ([1]; in Ethyl Acrylate)
Excellent: Solvency of the active substance [2, 7] | Solvency of the active substance [2, 10]
100 % by weight: Residual Rate (% by weight) Immediately after Preparation ([1]; in 1-Vinyl-2-Pyrrolidone) | Residual Rate (% by weight) after 7 Days ([1]; in 1-Vinyl-2-Pyrrolidone) | Residual Rate (% by weight) Immediately after Preparation ([1]; in 2-Ethylhexyl Acrylate) | Residual Rate (% by weight) after 7 Days ([1]; in 2-Ethylhexyl Acrylate) | Residual Rate (% by weight) Immediately after Preparation ([1]; in 2-Ethylhexyl Methacrylate) | Residual Rate (% by weight) after 7 Days ([1]; in 2-Ethylhexyl Methacrylate) | Residual Rate (% by weight) Immediately after Preparation ([1]; in Acrylic Acid) | Residual Rate (% by weight) after 7 Days ([1]; in Acrylic Acid) | Residual Rate (% by weight) Immediately after Preparation ([1]; in Butyl Acrylate) | Residual Rate (% by weight) after 7 Days [1, 5] | Residual Rate (% by weight) Immediately after Preparation ([1]; in Butyl Methacrylate) | Residual Rate (% by weight) Immediately after Preparation ([1]; in Dodecyl Methacrylate) | Residual Rate (% by weight) after 7 Days ([1]; in Dodecyl Methacrylate) | Residual Rate (% by weight) Immediately after Preparation [1, 6]

O=[N+]([O-])O[C@H]1CO[C@H]2[C@@H]1OC[C@H]2O[N+](=O)[O-] [ISDN, isosorbide dinitrate]
Excellent: Solvency of the active substance [2, 7] | Solvency of the active substance [2, 8] | Solvency of the active substance [2, 9] | Solvency of the active substance [2, 10] | Solvency of the active substance [2, 11] | Solvency of the active substance [2, 12] | Solvency of the active substance [2, 13] | Solvency of the active substance [2, 14]
100 % by weight: Residual Rate (% by weight) Immediately after Preparation ([1]; in 1-Vinyl-2-Pyrrolidone) | Residual Rate (% by weight) after 7 Days ([1]; in 1-Vinyl-2-Pyrrolidone) | Residual Rate (% by weight) Immediately after Preparation ([1]; in 2-Ethylhexyl Acrylate) | Residual Rate (% by weight) after 7 Days ([1]; in 2-Ethylhexyl Acrylate) | Residual Rate (% by weight) Immediately after Preparation ([1]; in 2-Ethylhexyl Methacrylate) | Residual Rate (% by weight) Immediately after Preparation ([1]; in Acrylic Acid) | Residual Rate (% by weight) after 7 Days ([1]; in Acrylic Acid) | Residual Rate (% by weight) Immediately after Preparation ([1]; in Butyl Acrylate) | Residual Rate (% by weight) after 7 Days [1, 5] | Residual Rate (% by weight) Immediately after Preparation ([1]; in Butyl Methacrylate) | Residual Rate (% by weight) after 7 Days ([1]; in Butyl Methacrylate) | Residual Rate (% by weight) Immediately after Preparation ([1]; in Dodecyl Methacrylate) | Residual Rate (% by weight) after 7 Days ([1]; in Dodecyl Methacrylate) | Residual Rate (% by weight) after 7 Days ([1]; in Ethyl Acrylate) | Residual Rate (% by weight) Immediately after Preparation [1, 6]
99 % by weight: Residual Rate (% by weight) after 7 Days ([1]; in 2-Ethylhexyl Methacrylate)

COc1ccc(OC)c(C(O)CN)c1 (stereo not shown) [DMAE, 2-amino-1-(2′,5′-dimethoxyphenyl)ethanol]
100 % by weight: Residual Rate (% by weight) Immediately after Preparation ([1]; in 1-Vinyl-2-Pyrrolidone) | Residual Rate (% by weight) after 7 Days ([1]; in 1-Vinyl-2-Pyrrolidone) | Residual Rate (% by weight) Immediately after Preparation ([1]; in Dodecyl Methacrylate)
0.84 g: Solubility of DMAE ([4]; g DMAE per 100 g Octyldodecanol at 25° C.)
0.87 g: Solubility of DMAE ([4]; g DMAE per 100 g Diethyl Sebacate at 25° C.)
0.31 g: Solubility of DMAE ([4]; g DMAE per 100 g Medium-chain Triglyceride at 25° C.)
97 % by weight: Residual Rate (% by weight) after 7 Days ([1]; in Acrylic Acid)
11 % by weight: Residual Rate (% by weight) after 7 Days ([1]; in 2-Ethylhexyl Acrylate)
3.7 g: Solubility of DMAE ([4]; g DMAE per 100 g Oleic Acid at 25° C.) | Solubility of DMAE ([4]; g DMAE per 100 g Polyoxyethylene (2) Lauryl Ether at 25° C.)
27 % by weight: Residual Rate (% by weight) Immediately after Preparation ([1]; in Butyl Acrylate)
0.01 g: Solubility of DMAE ([4]; g DMAE per 100 g Squalane at 25° C.)
Poor: Solvency of the active substance [2, 7] | Solvency of the active substance [2, 8] | Solvency of the active substance [2, 9] | Solvency of the active substance [2, 12] | Solvency of the active substance [2, 13] | Solvency of DMAE ([3]; 50 parts DMAE in 950 parts Butylene Glycol) | Solvency of DMAE ([3]; 50 parts DMAE in 950 parts Isostearic Acid) | Solvency of DMAE ([3]; 50 parts DMAE in 950 parts Monoethanolamine) | Solvency of DMAE ([3]; 50 parts DMAE in 950 parts Octanediol) | Solvency of DMAE ([3]; 50 parts DMAE in 950 parts Propylene Glycol) | Solvency of DMAE ([3]; 50 parts DMAE in 950 parts Triacetin)
0.02 g: Solubility of DMAE ([4]; g DMAE per 100 g Liquid Paraffin at 25° C.)
98 % by weight: Residual Rate (% by weight) Immediately after Preparation ([1]; in Butyl Methacrylate) | Residual Rate (% by weight) after 7 Days ([1]; in Butyl Methacrylate)
99 % by weight: Residual Rate (% by weight) Immediately after Preparation ([1]; in 2-Ethylhexyl Methacrylate) | Residual Rate (% by weight) after 7 Days ([1]; in 2-Ethylhexyl Methacrylate) | Residual Rate (% by weight) Immediately after Preparation ([1]; in Acrylic Acid) | Residual Rate (% by weight) after 7 Days ([1]; in Dodecyl Methacrylate)
1.4 g: Solubility of DMAE ([4]; g DMAE per 100 g Hexyldecanol at 25° C.)
2.6 g: Solubility of DMAE ([4]; g DMAE per 100 g Lauryl Alcohol at 25° C.)
2.5 g: Solubility of DMAE ([4]; g DMAE per 100 g Oleyl Alcohol at 25° C.)
1.8 g: Solubility of DMAE ([4]; g DMAE per 100 g Isostearyl Alcohol at 25° C.)
Excellent: Solvency of the active substance [2, 10] | Solvency of the active substance [2, 14] | Solvency of DMAE ([3]; 50 parts DMAE in 950 parts Diethyl Sebacate) | Solvency of DMAE ([3]; 50 parts DMAE in 950 parts Hexyldecanol) | Solvency of DMAE ([3]; 50 parts DMAE in 950 parts Isostearyl Alcohol) | Solvency of DMAE ([3]; 50 parts DMAE in 950 parts Lauryl Alcohol) | Solvency of DMAE ([3]; 50 parts DMAE in 950 parts Liquid Paraffin) | Solvency of DMAE ([3]; 50 parts DMAE in 950 parts Medium-chain Triglyceride) | Solvency of DMAE ([3]; 50 parts DMAE in 950 parts Octyldodecanol) | Solvency of DMAE ([3]; 50 parts DMAE in 950 parts Oleic Acid) | Solvency of DMAE ([3]; 50 parts DMAE in 950 parts Oleyl Alcohol) | Solvency of DMAE ([3]; 50 parts DMAE in 950 parts Polyoxyethylene (2) Lauryl Ether) | Solvency of DMAE ([3]; 50 parts DMAE in 950 parts Squalane)
39 % by weight: Residual Rate (% by weight) Immediately after Preparation ([1]; in 2-Ethylhexyl Acrylate)
Good: Solvency of the active substance [2, 11]
